We go through 50 compounds from US6369069B1 (Aventis Pharma Deutschland GmbH, priority 1998, dated 2002).

Test system in one data set: not given
Test: not given
Conditions: not given
For orientation: melting point means the temperature of the solid-liquid transition. For `N#CNS(=O)(=O)c1ccccc1-c1ccc(CN(Cc2ccccc2)C(=O)Cc2ccccc2SC(F)(F)F)cc1` [Example 564], the melting point is 122 °C (dec.).
On the same count and under the same terms, the same measure for `Cc1ccccc1C(=O)N(Cc1ccccc1)Cc1ccc(-c2ccccc2S(=O)(=O)NC#N)cc1` [Example 565, 4′-{[Benzyl-2-methylbenzoylamino]methyl}biphenyl-2-sulfonylcyanamide]: 173 °C (dec.).
Consider `Cc1ccc(C(=O)N(Cc2ccccc2)Cc2ccc(-c3ccccc3S(=O)(=O)NC#N)cc2)s1` [Example 568, 4′-{[Benzyl-(5-methylthiophen-2-yl)carbonylamino]methyl}biphenyl-2-sulfonylcyanamide], for which the melting point was 166 °C (dec.).
Turning to `N#CNS(=O)(=O)c1ccccc1-c1ccc(CN(Cc2ccccc2)C(=O)Cc2ccccc2OC(F)(F)F)cc1` [Example 563, 4′-{[Benzyl-2-(2-trifluoromethoxyphenyl)acetylamino]methyl}biphenyl-2-sulfonylcyanamide], the melting point is 125 °C (dec.).
Still for that read-out and setting: the same measure for `Cc1ccccc1CC(=O)N(Cc1ccccc1)Cc1ccc(-c2ccccc2S(=O)(=O)NC#N)cc1` [Example 561, 4′-{[Benzyl-2-(2-methylphenyl)acetylamino]methyl}biphenyl-2-sulfonylcyanamide]: 108 °C (dec.); for `N#CNS(=O)(=O)c1ccccc1-c1ccc(CN(Cc2ccccc2)C(=O)c2ccccc2C(F)(F)F)cc1` [Example 566, 4′-{[Benzyl-2-trifluoromethylbenzoylamino]methyl}biphenyl-2-sulfonylcyanamide]: 165 °C (dec.).

The next data set concerns Na^+-dependent Cl^−/HCO3^− exchanger (NCBE). The experiment in a line: Inhibition of the Na+-dependent Cl−/HCO3− exchanger (NCBE) in human endothelial cells (pHi recovery, BCECF fluorescence, FLIPR). The class given is cell-based. The conditions noted are these: 10 μM. The procedure, abridged: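 Fluorescence rise (FLIPR, 2 min, 35 °C) tracked pHi recovery in acid-loaded, BCECF-loaded ECV-304 cells after adding Na+- and HCO3−-containing buffer with 50 μM HOE 642 and graded compound doses. Inhibition was calculated against full-recovery and bicarbonate-free no-recovery controls.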
For `N#CNS(=O)(=O)c1ccccc1-c1ccc(CN(Cc2ccc(C(F)(F)F)cc2)C(=O)C(c2ccccc2)c2ccccc2)cc1` [Example 119], the “Residual activity % of the NCBE at 10 μM” value was 75.7%.
On the same count and under the same terms, the same measure for `Cc1ccccc1CN(Cc1ccc(-c2ccccc2S(=O)(=O)NC#N)cc1)C(=O)CCOc1ccccc1` [Example 342]: 85.3%; for `N#CNS(=O)(=O)c1ccccc1-c1ccc(CN(Cc2ccccn2)C(=O)Cc2ccsc2)cc1` [Example 228]: 94.8%; for `N#CNS(=O)(=O)c1ccccc1-c1ccc(CN(CC2CCCCC2)C(=O)C(=O)c2ccco2)cc1` [Example 258]: 95.8%.
On the same count and under the same terms, then `N#CNS(=O)(=O)c1ccccc1-c1ccc(CN(Cc2ccco2)C(=O)COc2ccccc2)cc1` [Example 164], with 76.4%; and `N#CNS(=O)(=O)c1ccccc1-c1ccc(CN(CCOc2ccccc2)C(=O)Cc2cccs2)cc1` [Example 142], with 27.1%.
Turning to `COc1cccc(CC(=O)N(CCO)Cc2ccc(-c3ccccc3S(=O)(=O)NC#N)cc2)c1` [Example 20], the “Residual activity % of the NCBE at 10 μM” value came out at 37.1%.
Same read-out and setting: the same measure for `COc1ccc(CC(=O)N(Cc2ccc(-c3ccccc3S(=O)(=O)NC#N)cc2)CC2CC2)cc1` [Example 175]: 93.2%; for `COc1cccc(CN(Cc2ccc(-c3ccccc3S(=O)(=O)NC#N)cc2)C(=O)c2ccccc2Cl)c1` [Example 106]: 98.9%; for `N#CNS(=O)(=O)c1ccccc1-c1ccc(CN(CC2CCCCC2)C(=O)Cc2cccs2)cc1` [Example 256]: 36.4%.
For the compound `CCCC(=O)N(Cc1ccc(-c2ccccc2S(=O)(=O)NC#N)cc1)C1CCCCC1` [Example 6], the “Residual activity % of the NCBE at 10 μM” value is given as 84.5%.
On the same count and under the same terms, the same measure for `N#CNS(=O)(=O)c1ccccc1-c1ccc(CN(Cc2ccccc2Cl)C(=O)c2cccs2)cc1` [Example 81]: 36.0%; for `N#CNS(=O)(=O)c1ccccc1-c1ccc(CN(Cc2ccc(Cl)cc2Cl)C(=O)Cc2cccs2)cc1` [Example 270]: 33.9%; for `C[C@@H](c1ccccc1)N(Cc1ccc(-c2ccccc2S(=O)(=O)NC#N)cc1)C(=O)c1cccs1` [Example 83]: 97.5%.
With `COc1ccccc1C(=O)N(Cc1ccc(-c2ccccc2S(=O)(=O)NC#N)cc1)C1CCCc2ccccc21` (centres unmarked) [Example 335], the “Residual activity % of the NCBE at 10 μM” value turned out to be 79.6%.
On the same count and under the same terms, then `CC(=O)N(Cc1ccc(-c2ccccc2S(=O)(=O)NC#N)cc1)Cc1ccco1` [Example 178], with 70.6%; and `CCN(Cc1ccc(-c2ccccc2S(=O)(=O)NC#N)cc1)C(=O)Cc1c[nH]c2ccccc12` [Example 207], with 31.0%.
Regarding `C[C@H](c1ccccc1)N(Cc1ccc(-c2ccccc2S(=O)(=O)NC#N)cc1)C(=O)c1ccccc1Cl` [Example 108], the “Residual activity % of the NCBE at 10 μM” value was found to be 87.7%.
The same measure, in the same setting: then `C[C@@H](c1ccccc1)N(Cc1ccc(-c2ccccc2S(=O)(=O)NC#N)cc1)C(=O)C(C(=O)Cc1ccccc1)c1ccccc1` (some centres unmarked) [Example 136], with 93.6%; and `COc1cccc(CN(Cc2ccc(-c3ccccc3S(=O)(=O)NC#N)cc2)C(=O)Nc2c(F)cccc2F)c1` [Example 301], with 87.9%; and `N#CNS(=O)(=O)c1ccccc1-c1ccc(CN(Cc2ccccc2Cl)C(=O)COc2ccccc2)cc1` [Example 167], with 47.5%.
The same measure, in the same setting: the same measure for `C=CCOC(=O)N(Cc1ccccc1)Cc1ccc(-c2ccccc2S(=O)(=O)NC#N)cc1` [Example 43]: 41.6%.
Still for that read-out and setting: the same measure for `COCCN(Cc1ccc(-c2ccccc2S(=O)(=O)NC#N)cc1)C(=O)Cc1cccs1` [Example 237]: 50.3%; for `C[C@@H](c1ccccc1)N(Cc1ccc(-c2ccccc2S(=O)(=O)NC#N)cc1)C(=O)c1ccccc1F` [Example 93]: 92.9%; for `CN(Cc1ccc(-c2ccccc2S(=O)(=O)NC#N)cc1)C(=O)CCCc1cccs1` [Example 190]: 43.4%.
`COc1ccc(CCN(Cc2ccc(-c3ccccc3S(=O)(=O)NC#N)cc2)C(=O)c2cc3ccccc3s2)cc1` [Example 80]: the “Residual activity % of the NCBE at 10 μM” value is 66.7%.
In the case of `N#CNS(=O)(=O)c1ccccc1-c1ccc(CN(CCc2cccs2)C(=O)COc2ccccc2)cc1` [Example 165], the “Residual activity % of the NCBE at 10 μM” value was found to be 56.8%.
Take `COc1ccccc1C(=O)N(Cc1ccc(-c2ccccc2S(=O)(=O)NC#N)cc1)Cc1ccc2ccccc2c1` [Example 330]: the “Residual activity % of the NCBE at 10 μM” value was determined as 14.4%.
On the same count and under the same terms, the same measure for `COc1cccc(CN(Cc2ccc(-c3ccccc3S(=O)(=O)NC#N)cc2)C(=O)Cc2ccccc2)c1` [Example 126]: 53.7%; for `CCCC(=O)N(CCO)Cc1ccc(-c2ccccc2S(=O)(=O)NC#N)cc1` [Example 2]: 78.1%.
Still for that read-out and setting: the same measure for `CC(C)(C)CC(=O)N(CCc1cccs1)Cc1ccc(-c2ccccc2S(=O)(=O)NC#N)cc1` [Example 159]: 61.2%; for `N#CNS(=O)(=O)c1ccccc1-c1ccc(CN(CC2CC2)C(=O)Cc2ccc(Cl)cc2)cc1` [Example 153]: 46.1%.
For `N#CNS(=O)(=O)c1ccccc1-c1ccc(CN(C(=O)Cc2ccsc2)C2CC2)cc1` [Example 229], the “Residual activity % of the NCBE at 10 μM” value is recorded as 86.7%.
Still for that read-out and setting: then `CCCCC(=O)N(Cc1ccc(Cl)cc1)Cc1ccc(-c2ccccc2S(=O)(=O)NC#N)cc1` [Example 65], with 80.0%.
Same read-out and setting: then `Cc1cccc(CN(Cc2ccc(-c3ccccc3S(=O)(=O)NC#N)cc2)C(=O)CC2CCCC2)c1` [Example 361], with 29.4%; and `COc1ccc(CN(Cc2ccc(-c3ccccc3S(=O)(=O)NC#N)cc2)C(=O)Cc2cccs2)cc1` [Example 27], with 35.5%; and `N#CNS(=O)(=O)c1ccccc1-c1ccc(CN(Cc2cccc(Cl)c2Cl)C(=O)CCOc2ccccc2)cc1` [Example 339], with 46.8%.
Still for that read-out and setting: then `N#CNS(=O)(=O)c1ccccc1-c1ccc(CN(CC2CCCO2)C(=O)Cc2cccs2)cc1` (centres unmarked) [Example 318], with 16.4%.
With `N#CNS(=O)(=O)c1ccccc1-c1ccc(CN(CC2CCCCC2)C(=O)CCCCc2ccccc2)cc1` [Example 266], the “Residual activity % of the NCBE at 10 μM” value was determined as 79.7%.
Consider `COc1cc(CN(Cc2ccc(-c3ccccc3S(=O)(=O)NC#N)cc2)C(=O)Cc2ccc(Cl)cc2)cc(OC)c1OC` [Example 155], for which the “Residual activity % of the NCBE at 10 μM” value amounted to 34.2%.

The data set is the same for the next values; noted with them: 10 μM compound; human endothelial cells (ECV-304); related to 100% and 0% pHi recovery controls.
On to `N#CNS(=O)(=O)c1ccccc1-c1ccc(CN(Cc2ccccc2)C(=O)Cc2ccccc2SC(F)(F)F)cc1` [Example 564], for which the “Residual activity of the NCBE at 10 μM” value was 23%.
Regarding `Cc1ccccc1C(=O)N(Cc1ccccc1)Cc1ccc(-c2ccccc2S(=O)(=O)NC#N)cc1` [Example 565, 4′-{[Benzyl-2-methylbenzoylamino]methyl}biphenyl-2-sulfonylcyanamide], the “Residual activity of the NCBE at 10 μM” value amounted to 42%.
Same read-out and setting: then `Cc1ccc(C(=O)N(Cc2ccccc2)Cc2ccc(-c3ccccc3S(=O)(=O)NC#N)cc2)s1` [Example 568, 4′-{[Benzyl-(5-methylthiophen-2-yl)carbonylamino]methyl}biphenyl-2-sulfonylcyanamide], with 70%.
Take `N#CNS(=O)(=O)c1ccccc1-c1ccc(CN(Cc2ccccc2)C(=O)Cc2ccccc2OC(F)(F)F)cc1` [Example 563, 4′-{[Benzyl-2-(2-trifluoromethoxyphenyl)acetylamino]methyl}biphenyl-2-sulfonylcyanamide]: the “Residual activity of the NCBE at 10 μM” value was 46%.
As to `Cc1ccccc1CC(=O)N(Cc1ccccc1)Cc1ccc(-c2ccccc2S(=O)(=O)NC#N)cc1` [Example 561, 4′-{[Benzyl-2-(2-methylphenyl)acetylamino]methyl}biphenyl-2-sulfonylcyanamide], the “Residual activity of the NCBE at 10 μM” value came out at 16%.
Same read-out and setting: then `N#CNS(=O)(=O)c1ccccc1-c1ccc(CN(Cc2ccccc2)C(=O)c2ccccc2C(F)(F)F)cc1` [Example 566, 4′-{[Benzyl-2-trifluoromethylbenzoylamino]methyl}biphenyl-2-sulfonylcyanamide], with 72%; and `COCCOc1cc(-c2ccccc2S(=O)(=O)NC#N)ccc1CN(Cc1ccccc1)S(=O)(=O)c1cccs1` [Example 558, 4′-{[Benzyl(thiophene-2-sulfonyl)amino]methyl}-3′-(2-methoxy)ethoxy-biphenyl-2-sulfonylcyanamide], with 30%.
On the same count and under the same terms, then `N#CNS(=O)(=O)c1ccccc1-c1ccc(CN(Cc2ccccc2)C(=O)Cc2cccs2)c(Cl)c1` [Example 554, 4′-{[Benzyl-(2-thiophen-2-ylacetyl)amino]methyl}-3′-chlorobiphenyl-2-sulfonylcyanamide], with 15%.

Staying with this data set, now noted: compound at 10 μM; R(3) to R(7) hydrogen series.
Turning to `Cc1ccc(C(C)C(=O)N(Cc2ccccc2)Cc2ccc(-c3ccccc3S(=O)(=O)NC#N)cc2)s1` (centres unmarked) [Example 481], the “Residual activity % of the NCBE at 10 μM” value was 62.6%.

Staying with this data set, now noted: compound at 10 μM; sub-table with R7 substituent.
As for `Cc1ccc(-c2ccc(CN(CCc3ccccc3)C(=O)Cc3cccs3)cc2)c(S(=O)(=O)NC#N)c1` [Example 518], the “Residual activity % of the NCBE at 10 μM” value is on record as 93.5%.
